{"source": "ChEMBL document CHEMBL2203052", "about": "“Synthesis and antimycobacterial activity of calpinactam derivatives” (2012)"}
{"system": "Mycolicibacterium smegmatis", "assay": "Antimycobacterial activity against Mycobacterium smegmatis by liquid microdilution method", "format": "functional", "units": {"MIC": "µg/mL"}}
{"smiles": "CC[C@H](C)[C@@H](NC(=O)[C@H](CCC(=O)O)NC(=O)[C@H](Cc1cnc[nH]1)NC(=O)[C@H](CC(C)C)NC(=O)[C@H](N)Cc1ccccc1)C(=O)N[C@H]1CCCCNC1=O", "MIC": "> 50"}
{"smiles": "CC[C@H](C)[C@@H](NC(=O)[C@@H](CCC(=O)O)NC(=O)[C@H](C)NC(=O)[C@H](CC(C)C)NC(=O)[C@H](N)Cc1ccccc1)C(=O)N[C@H]1CCCCNC1=O", "MIC": "> 50"}
{"smiles": "CC[C@H](C)[C@@H](NC(=O)[C@@H](CCC(=O)O)NC(=O)[C@H](Cc1cnc[nH]1)NC(=O)[C@@H](CC(C)C)NC(=O)[C@H](N)Cc1ccccc1)C(=O)N[C@H]1CCCCNC1=O", "MIC": "> 50"}
{"smiles": "CC[C@H](C)[C@@H](NC(=O)[C@@H](CCC(=O)O)NC(=O)[C@H](Cc1cnc[nH]1)NC(=O)[C@H](CC(C)C)NC(=O)[C@H](N)Cc1ccccc1)C(=O)NC1CCCCCC1", "MIC": "> 50"}
{"smiles": "CC[C@H](C)[C@@H](NC(=O)[C@@H](CCC(=O)O)NC(=O)[C@H](Cc1cnc[nH]1)NC(=O)[C@H](CC(C)C)NC(=O)[C@@H](C)N)C(=O)N[C@H]1CCCCNC1=O", "MIC": "> 50"}
{"smiles": "CC[C@H](C)[C@@H](NC(=O)[C@@H](C)NC(=O)[C@H](Cc1cnc[nH]1)NC(=O)[C@H](CC(C)C)NC(=O)[C@H](N)Cc1ccccc1)C(=O)N[C@H]1CCCCNC1=O", "MIC": 6.25}
{"smiles": "CC[C@H](C)[C@@H](NC(=O)[C@@H](CCC(=O)O)NC(=O)[C@H](Cc1cnc[nH]1)NC(=O)[C@H](CC(C)C)NC(=O)[C@@H](Cc1ccccc1)NC(C)=O)C(=O)N[C@H]1CCCCNC1=O", "MIC": "> 50"}
{"smiles": "CC[C@H](C)[C@@H](NC(=O)[C@@H](CCC(=O)O)NC(=O)[C@H](Cc1cnc[nH]1)NC(=O)[C@H](CC(C)C)NC(=O)[C@H](N)Cc1ccccc1)C(=O)O", "MIC": "> 50"}
{"smiles": "CC[C@H](C)[C@@H](NC(=O)[C@@H](CCC(=O)O)NC(=O)[C@H](Cc1cnc[nH]1)NC(=O)[C@H](CC(C)C)NC(=O)[C@H](N)Cc1ccccc1)C(=O)N[C@@H](C)C(=O)O", "MIC": "> 50"}
{"smiles": "CC[C@H](C)[C@@H](NC(=O)[C@@H](CCC(=O)O)NC(=O)[C@H](Cc1cnc[nH]1)NC(=O)[C@H](C)NC(=O)[C@H](N)Cc1ccccc1)C(=O)N[C@H]1CCCCNC1=O", "MIC": "> 50"}
{"smiles": "CC[C@H](C)[C@@H](NC(=O)[C@@H](CCC(=O)O)NC(=O)[C@H](Cc1cnc[nH]1)NC(=O)[C@H](CC(C)C)NC(=O)[C@H](N)Cc1ccccc1)C(=O)N[C@H]1CCCNC1=O", "MIC": "> 50"}
{"smiles": "CC[C@H](C)[C@@H](NC(=O)[C@@H](CCC(=O)O)NC(=O)[C@H](Cc1cnc[nH]1)NC(=O)[C@H](CC(C)C)NC(=O)[C@H](N)Cc1ccccc1)C(=O)N[C@@H]1CCCCNC1=O", "MIC": "> 50"}
{"smiles": "CC(C)C[C@H](NC(=O)[C@H](N)Cc1ccccc1)C(=O)N[C@@H](Cc1cnc[nH]1)C(=O)N[C@H](CCC(=O)O)C(=O)N[C@H](C)C(=O)N[C@H]1CCCCNC1=O", "MIC": "> 50"}
{"smiles": "CC[C@H](C)[C@@H](NC(=O)[C@@H](CCC(=O)O)NC(=O)[C@H](Cc1cnc[nH]1)NC(=O)[C@@H](N)CC(C)C)C(=O)N[C@H]1CCCCNC1=O", "MIC": "> 50"}
{"smiles": "CC[C@H](C)[C@H](NC(=O)[C@@H](CCC(=O)O)NC(=O)[C@H](Cc1cnc[nH]1)NC(=O)[C@H](CC(C)C)NC(=O)[C@H](N)Cc1ccccc1)C(=O)N[C@H]1CCCCNC1=O", "MIC": "> 50"}
{"smiles": "CC[C@H](C)[C@@H](NC(=O)[C@@H](CCC(=O)O)NC(=O)[C@H](Cc1cnc[nH]1)NC(=O)[C@H](CC(C)C)NC(=O)[C@H](N)Cc1ccccc1)C(=O)N[C@H]1CCCCNC1=O", "note": "[CALPINACTAM]", "MIC": 0.78}
{"smiles": "CC[C@H](C)[C@@H](NC(=O)[C@@H](CCC(=O)O)NC(=O)[C@H](Cc1cnc[nH]1)NC(=O)[C@H](CC(C)C)NC(=O)[C@H](N)Cc1ccccc1)C(=O)N[C@@H](CCCCN)C(=O)O", "MIC": "> 50"}
{"smiles": "CC[C@H](C)[C@@H](NC(=O)[C@@H](CCC(=O)O)NC(=O)[C@H](Cc1cnc[nH]1)NC(=O)[C@H](CC(C)C)NC(=O)[C@@H](N)Cc1ccccc1)C(=O)N[C@H]1CCCCNC1=O", "MIC": "> 50"}
{"smiles": "CC[C@H](C)[C@@H](NC(=O)[C@@H](CCC(=O)O)NC(=O)[C@@H](Cc1cnc[nH]1)NC(=O)[C@H](CC(C)C)NC(=O)[C@H](N)Cc1ccccc1)C(=O)N[C@H]1CCCCNC1=O", "MIC": "> 50"}
